Values joined by “and” are separate entries in the source; they are usually repeats but may differ in a detail not shown here. Equal entries are not always repeated. Toxic doses and inconclusive results are not listed.
Tested on: P388 leukemia ip, CD2F1 mice, survival T/C
Test: NCI In Vivo Anticancer Drug Screen. Data for tumor model P388 Leukemia (intraperitoneal) in CD2F1 (CDF1) mice
Details: endpoint: median survival time, higher = longer survival
In short: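 Mice carrying the transplanted tumor received test compound or vehicle. Survival was recorded in each group, and the value is the treated-group measurement divided by that of the vehicle-treated control group.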

[1] = dose: 50.0 mg/kg/injection, schedule: Q01DX009 (ip), vehicle: saline
[2] = dose: 100.0 mg/kg/injection, schedule: Q01DX009 (ip), vehicle: saline
[3] = dose: 50.0 mg/kg/injection, schedule: Q01DX005 (ip), vehicle: Klucel (hydroxypropylcellulose) (HPC)
[4] = dose: 100.0 mg/kg/injection, schedule: Q01DX005 (ip), vehicle: Klucel (hydroxypropylcellulose) (HPC)
[5] = dose: 200.0 mg/kg/injection, schedule: Q01DX005 (ip), vehicle: Klucel (hydroxypropylcellulose) (HPC)
[6] = dose: 60.0 mg/kg/injection, schedule: Q01DX005 (ip), vehicle: saline with Tween-80
[7] = dose: 120.0 mg/kg/injection, schedule: Q01DX005 (ip), vehicle: saline with Tween-80
[8] = dose: 240.0 mg/kg/injection, schedule: Q01DX005 (ip), vehicle: saline with Tween-80
[9] = dose: 50.0 mg/kg/injection, schedule: Q01DX005 (ip), vehicle: saline with Tween-80
[10] = dose: 100.0 mg/kg/injection, schedule: Q01DX005 (ip), vehicle: saline with Tween-80
[11] = dose: 200.0 mg/kg/injection, schedule: Q01DX005 (ip), vehicle: saline with Tween-80

## Nc1cc(S(=O)(=O)O)c(Br)c(Br)c1Br
[1]
  T/C: 94 % of control
[2]
  T/C: 95 % of control
dose: 200.0 mg/kg/injection, schedule: Q01DX009 (ip), vehicle: saline
  T/C: 90 % of control

## CC(=O)OCc1c(-c2ccccc2)sc2ccccc2c1=O
[3]
  T/C: 96 % of control
[4]
  T/C: 102 % of control
[5]
  T/C: 97 % of control

## COC(=O)C1(C(C(=O)c2ccccc2)c2ccccc2)NC(=S)NC(=O)C1C#N (stereo not given)
[6]
  T/C: 100 % of control
[7]
  T/C: 105 % of control
[8]
  T/C: 100 % of control

## CC(=O)NS(=O)(=O)c1ccc(NCc2c3ccccc3nc3cc(Cl)ccc23)cc1
[6]
  T/C: 114 % of control
[7]
  T/C: 102 % of control
[8]
  T/C: 105 % of control

## Cc1cc(C)n(-c2ccc3nnnn3n2)n1
dose: 100.0 mg/kg/injection, schedule: Q04DX002 (ip), vehicle: saline
  T/C: 93 % of control
dose: 200.0 mg/kg/injection, schedule: Q04DX002 (ip), vehicle: saline
  T/C: 93 % of control
dose: 400.0 mg/kg/injection, schedule: Q04DX002 (ip), vehicle: saline
  T/C: 102 % of control

## COC(=O)c1ncn(C(C(=O)OC)C(=O)OC)c1O
[6]
  T/C: 104 % of control
[7]
  T/C: 100 % of control
[8]
  T/C: 113 % of control

## COc1ccn(CC(C)=O)c(=O)n1
dose: 60.0 mg/kg/injection, schedule: Q01DX005 (ip), vehicle: saline
  T/C: 100 % of control
dose: 120.0 mg/kg/injection, schedule: Q01DX005 (ip), vehicle: saline
  T/C: 100 % of control
dose: 240.0 mg/kg/injection, schedule: Q01DX005 (ip), vehicle: saline
  T/C: 100 % of control

## Cc1cccc(Nc2c(N)nc(N)nc2N)c1
dose: 25.0 mg/kg/injection, schedule: Q01DX009 (ip), vehicle: saline with Tween-80
  T/C: 100 % of control
dose: 25.0 mg/kg/injection, schedule: Q04DX003 (ip), vehicle: saline with Tween-80
  T/C: 100 % of control
dose: 50.0 mg/kg/injection, schedule: Q01DX009 (ip), vehicle: saline with Tween-80
  T/C: 109 % of control
dose: 50.0 mg/kg/injection, schedule: Q04DX003 (ip), vehicle: saline with Tween-80
  T/C: 100 % of control
dose: 100.0 mg/kg/injection, schedule: Q04DX003 (ip), vehicle: saline with Tween-80
  T/C: 104 % of control and 118 % of control

## C[C@]12CC[C@H](O)CC1=CC[C@@H]1[C@@H]2CC[C@]2(C)C(=O)CC[C@@H]12
dose: 25.0 mg/kg/injection, schedule: Q01DX005 (ip), vehicle: saline with Tween-80
  T/C: 94 % of control
[9]
  T/C: 90 % of control
[10]
  T/C: 91 % of control
[11]
  T/C: 90 % of control

## O=C(Cl)C=Cc1ccc([N+](=O)[O-])cc1 (mixture of isomers)
[1]
  T/C: 104 % of control
[2]
  T/C: 94 % of control

## COc1ccc(-n2c(C)c(COC(=O)NC(C)C)c(COC(=O)NC(C)C)c2C)cc1
dose: 20.0 mg/kg/injection, schedule: Q01DX005 (ip), vehicle: Klucel (hydroxypropylcellulose) (HPC)
  T/C: 163 % of control
dose: 40.0 mg/kg/injection, schedule: Q01DX005 (ip), vehicle: Klucel (hydroxypropylcellulose) (HPC)
  T/C: 172 % of control
dose: 60.0 mg/kg/injection, schedule: Q01DX005 (ip), vehicle: Klucel (hydroxypropylcellulose) (HPC)
  T/C: 150 % of control and 186 % of control
dose: 120.0 mg/kg/injection, schedule: Q01DX005 (ip), vehicle: Klucel (hydroxypropylcellulose) (HPC)
  T/C: 181 % of control

## CCc1nc(N)nc(N)c1-c1ccc(NC)c([N+](=O)[O-])c1
[4]
  T/C: 182 % of control

## c1ccc2c3c(cc(CNCCNCc4cc5c(c6ccccc46)CCCC5)c2c1)CCCC3
[9]
  T/C: 87 % of control
[10]
  T/C: 96 % of control
[11]
  T/C: 110 % of control

## CC1N(/N=C/c2ccccc2)C(c2ccccc2)C(c2ccccc2)N1/N=C/c1ccccc1 (stereo not given)
[3]
  T/C: 99 % of control
[4]
  T/C: 98 % of control
[5]
  T/C: 99 % of control

## CC1C(=O)C(Cl)(Cl)C1(C)C (stereo not given)
dose: 100.0 mg/kg/injection, schedule: Q01DX001 (ip), vehicle: saline with Tween-80
  T/C: 106 % of control
dose: 200.0 mg/kg/injection, schedule: Q01DX001 (ip), vehicle: saline with Tween-80
  T/C: 110 % of control
